For data set [1] the following is noted: 298.15 K; 101.33 kPa; Liquid.
Data set [2] can be described thus: refractive index (Na D-line) (dimensionless). To be noted: 298.15 K, 101.33 kPa, Liquid.

The structures appear in SMILES notation. ± gives the expanded uncertainty stated by the source.

What is called mass density is mass per unit of volume. As usually defined, the refractive index is a measure of how strongly the sample bends light.

Regarding `CCCCn1cc[n+](C)c1.F[P-](F)(F)(F)(F)F` [1-butyl-3-methylimidazolium hexafluorophosphate], the mass density in data set [1] is 1367.3 ± 2.9 kg/m3. For the same compound, the refractive index in data set [2] amounted to 1.40937 ± 0.0011.
`CCCCCCn1cc[n+](C)c1.F[P-](F)(F)(F)(F)F` [1-hexyl-3-methylimidazolium hexafluorophosphate]: the mass density in data set [1] came out at 1293.7 ± 2.5 kg/m3. The refractive index in data set [2] was 1.41787 ± 0.0011.
In the same order, the values of `CCCCCCCC[n+]1ccn(C)c1.F[P-](F)(F)(F)(F)F` [1-octyl-3-methylimidazolium hexafluorophosphate] are 1235.7 ± 2.2 kg/m3 and 1.42302 ± 0.0011.
`CCCCO` [butan-1-ol]: in data set [1], the mass density is 805.6 ± 0.5 kg/m3. Also, the refractive index in data set [2] (Standard Abbe refractometry) is 1.39726 ± 0.00072.
For `CCCCCO` [pentan-1-ol], in data set [1], the mass density is on record as 810.8 ± 0.8 kg/m3. Also, the refractive index in data set [2] (Standard Abbe refractometry) amounted to 1.40797 ± 0.00075.
Take `CCCO` [propan-1-ol]: the mass density in data set [1] stood at 799.6 ± 0.8 kg/m3. In data set [2] (Standard Abbe refractometry), the refractive index was 1.38305 ± 0.00075.
